For test [1], the system named is melanocytes (B16 cell line). In words: Inhibition of melanin synthesis in B16 melanocytes. In kind it is cell-based. The conditions noted are these: 3 days, blank value = 100. As to the method:
Melanin is the pigment responsible for the color of the skin and hair. It is formed in special organelles, the melanosomes, which occur in the melanocytes of the basal layer of the human epidermis. The biosynthesis of melanin begins with the amino acid tyrosine which is oxidized to DOPA (dihydroxyphenylalanine) in the presence of tyrosinase. The DOPA then polymerizes to melanin. […] After incubation for 3 days at 37° C./5% CO2, the nutrient medium was replaced by a solution containing the test substances in various concentrations. After incubation for another 3 days, the cell protein content (Bradford's method) and the content of synthesized melanin were determined through the optical density of the homogenizate at 475 nm. The results are expressed in % against a blank value and are set out in Table 7.

The test system of test [2] is human fibroblasts. Put plainly: Anti-stress effect on UV-A-damaged fibroblasts. Type of test: cell-based. The conditions noted are these: + UV-A 20 J/cm^2; for Cell proteins: blank sample = 100; for GSH/proteins: blank sample = 100, blank + UV-A = 65. How it is done: UV-A radiation in the 320 to 400 nm range induces oxidative stress which is mainly produced by the activation of photosensitive biological components which in turn catalyze the formation of ROS-like superoxide anions, hydrogen peroxide and singlet oxygen atoms. The anti-UV-A effect was tested on fibroblasts because UV-A radiation penetrates through the dermis where it causes oxidative damage by lipoperoxidation of the cell membrane and a reduction in the content of reduced glutathione (GHS). To this end, human fibroblasts were cultivated as described in a), exposed to UV-A rays (20 J/cm^2) and the cell counts and the GSH content subsequently determined. The results are set out in Table 3, where they are expressed in %-rel. against a blank sample, and represent the results of 3 series of measurements with triple determination.

For test [3], the system named is human leukaemic granulocytes. Put plainly: Anti-inflammatory activity: respiratory burst of granulocytes (zymosan, luminol). Type of test: cell-based. The settings on record: + stimulation (zymosan), blank + stimulation = 100. The text has this: In the course of cutaneous inflammation, leucocytes, such as the polymorphonuclear neutrophilic granulocytes (PMNs) for example, are stimulated by peptides, such as cytokines for example, to emit messenger substances, such as leucotriene for example, which are released from activated or necrotic cells in the dermis. These activated PMNs release not only pro-inflammatory cytokinins, leucotrienes and proteases, but also ROS, such as superoxides and hypochlorite anions for example, of which the function is to destroy penetrated pathogenic germs or fungi. This activity of the PMNs during the inflammation is known as so-called respiratory burst. To investigate to what extent the test extracts can prevent or reduce the respiratory burst, a cell line of human leukaemic granulocytes of these PMNs was incubated together with the test substances at 37° C. and 5% by vol. CO2. After the respiratory burst had been initiated by addition of a yeast extract (zymosan) to the cell solution, the release of superoxide anions was determined through their reaction with luminol.

Test [4] deals with bacterial collagenase (clostridium histolyticum). In words: Collagenase inhibition on FITC-marked gelatin. Type of test: biochemical. The settings on record: 60 mins. at 20° C. How it is done: In the event of inflammation, skin proteases, for example collagenase, are released from the polymorphonuclear neutrophilic granulocytes or macrophages. A similar process takes place in the skin of elderly people on exposure to UV rays. As already mentioned, the proteases—also known as matrix metalloproteases (MMPs) through their content of central zinc ions—catalyze the fragmentation of connective tissue proteins. The test substances were tested for collagenase inhibition using bacterial collagenase (clostridium histolyticum) on gelatin marked with fluorochromium (FITC, Calbiochem) as a natural nutrient medium. The incubation time was 60 mins. at 20° C.; the hydrolysis of the substrate was monitored by fluorescence at 393 nm (excitation at 328 nm). The results are set out in Table 6 as the collagenase inhibition in %.

Test [5] concerns human keratinocytes. Put plainly: Protecting cells against UVB radiation (cell DNA, LDH and PGE2 release). In kind it is cell-based. The settings on record: + UV-B 50 mJ/cm^2; for Cell DNA: blank = 100, control + UV-B = 33; for LDH released / PGE2 released: control + UV-B = 100. As to the method:
UVB was selected as the stress factor because the rays produce cutaneous inflammation (erythemas, oedemas) by activating enzymes that release arachidonic acid, such as phospholipase A2 (PLA2) for example. […] The influence of UVB rays on keratinocytes was determined in vitro through the release of cytoplasmatic enzymes, such as LDH (lactate dehydrogenase) for example, which runs parallel to the cell damage and the formation of PGE2. […] The quantity of keratinocytes was determined after trypsination via a cell counter while the LDH concentration was enzymatically determined. The results are set out in Table 4, where they are expressed as the activity in %-rel. against a standard, and represent the mean value of two test series involving double determination.

In test [6] the test system is Propionibacterium acnes. In words: Agar diffusion method, inhibition zones. Type of test: cell-based. The settings on record: filter paper with 20 μl test substance; 18 to 24 h at 37° C., anaerobic. How it is done:
(§1) The antibacterial activity of the test substances was tested by the diffusion method on agar plates or the agar dilution method. In this method, a round filter paper of defined diameter is first impregnated with the test solution and then applied to the surface of an agar plate inoculated beforehand with the test microorganisms. The size of the inhibition zones is then determined after defined times. In particular, it is possible by this method to determine the MIC (Minimum Inhibitory Concentration) as the lowest concentration of test substance with which complete inhibition of the microorganisms can be obtained.
(§2) Agar diffusion method. The inoculum was prepared using a fresh culture in a stationary growth phase (after ca. 18-24 h) in a BHI solution (brain-heart Infusion). The bacterial suspension was adjusted to 0.5 MacFarland units, corresponding to 1.5 10^8 colony-forming units (cfu)/ml; the suspension was then diluted with a sodium chloride solution (1:100) to adjust a value of 1.5 10^6 cfu/ml. Mueller-Hinton agar (Staphylococcus epidermidis, Staphylococcus aureus) and Wilkins-Chalgrens agar containing 5% by weight sheep's blood (Propionibacterium acnes) were then sterilized for 15 mins. at 121° C. and then placed in Petri dishes. 2 to 4 ml of the bacterial suspension were then added to the Petri dishes, followed by drying at room temperature. The filter papers were impregnated with 20 μl of the test substances and applied to the surface of the agar plates. The inoculated Petri dishes were incubated for 18 to 24 h at 37° C. (the Petri dishes containing Propionibacterium acnes under anaerobic conditions) and the antimicrobial activity was then determined by determination of the growth inhibition zones. The results are set out in Table 10 and represent the diameters of the inhibition zones in mm.

Test [7] relates to Staphylococcus aureus. In words: Agar diffusion method, inhibition zones. In kind it is cell-based. The conditions noted are these: filter paper with 20 μl test substance; 18 to 24 h at 37° C. How it is done:
as §1, §2

The subject of test [8] is Staphylococcus epidermidis. Put plainly: Agar diffusion method, inhibition zones. In kind it is cell-based. The settings on record: filter paper with 20 μl test substance; 18 to 24 h at 37° C. How it is done:
as §1, §2

In test [1] (conc. 0.003 % w/v), Fructose dicaprate yielded a Cell melanin of 88 %-rel and a Cell proteins of 105 %-rel. In test [1] (conc. 0.01 % w/v), the Cell melanin is recorded as 41 %-rel and the Cell proteins is 91 %-rel.

Regarding Fructose monostearate, in test [1] (conc. 0.001 % w/v), the Cell melanin turned out to be 85 %-rel and the Cell proteins came out at 104 %-rel. In test [1] (conc. 0.003 % w/v), this substance gave a Cell melanin of 34 %-rel and a Cell proteins of 91 %-rel.

As to Fructose stearate, in test [2] (conc. 0.003 % w/v), the Cell proteins is recorded as 83 %-rel and the GSH/proteins is 79 %-rel. Moreover, in test [3] (conc. 0.001 % w/v), the Cell counts was 100 %-rel and the ROS released was determined as 88 %-rel. Besides, in test [3] (conc. 0.01 % w/v), the Cell counts is 155 %-rel and the ROS released was found to be 26 %-rel. Also, the Collagenase inhibition in test [4] (Conc. [w/v] 0.3) was 45 %-rel. In test [1] (conc. 0.006 % w/v), this substance registered a Cell melanin of 49 %-rel and a Cell proteins of 105 %-rel. In test [1] (conc. 0.01 % w/v), this substance had a Cell melanin of 21 %-rel and a Cell proteins of 76 %-rel.

Glucose caprate: in test [2] (conc. 0.003 % w/v), the Cell proteins worked out at 109 %-rel and the GSH/proteins was 144 %-rel. Further, in test [5] (conc. 0.003 % w/v), the “Cell DNA” value is 28 %-rel, the LDH released came to 72 %-rel and the PGE2 released was found to be 50 %-rel. Moreover, in test [5] (conc. 0.01 % w/v), the “Cell DNA” value was determined as 36 %-rel, the LDH released is 48 %-rel and the PGE2 released is reported as 28 %-rel.

For Glucose caprylate, the “Inhibition zones, Propionibacterium acnes” value in test [6] is listed as 12 mm. Further, in test [7], the “Inhibition zones, Staphylococcus aureus” value turned out to be 11 mm. In test [8], the “Inhibition zones, Staphylococcus epidermidis” value was 0 mm.

As to Glucose laurate, in test [2] (conc. 0.0001 % w/v), the Cell proteins is 95 %-rel and the GSH/proteins is listed as 91 %-rel. Also, in test [5] (conc. 0.001 % w/v), the “Cell DNA” value is given as 17 %-rel, the LDH released amounted to 105 %-rel and the PGE2 released worked out at 107 %-rel. Also, in test [5] (conc. 0.003 % w/v), the “Cell DNA” value came out at 54 %-rel, the LDH released came to 49 %-rel and the PGE2 released worked out at 23 %-rel. Also, the Collagenase inhibition in test [4] (Conc. [w/v] 0.1) is 28 %-rel. For the same substance, the “Inhibition zones, Propionibacterium acnes” value in test [6] amounted to 10 mm. For the same substance, in test [7], the “Inhibition zones, Staphylococcus aureus” value is on record as 14 mm. In test [8], the “Inhibition zones, Staphylococcus epidermidis” value came out at 16 mm.

Regarding Glucose palmitate, in test [2] (conc. 0.003 % w/v), the Cell proteins is listed as 119 %-rel and the GSH/proteins is listed as 114 %-rel. For the same substance, in test [5] (conc. 0.001 % w/v), the “Cell DNA” value is 32 %-rel, the LDH released came out at 68 %-rel and the PGE2 released came to 63 %-rel. Moreover, in test [5] (conc. 0.003 % w/v), the “Cell DNA” value stood at 32 %-rel, the LDH released worked out at 68 %-rel and the PGE2 released was determined as 65 %-rel. Further, in test [3] (conc. 0.001 % w/v), the Cell counts was found to be 102 %-rel and the ROS released came to 99 %-rel. In test [3] (conc. 0.01 % w/v), the Cell counts was 91 %-rel and the ROS released was 58 %-rel.

Sucrose stearate: the results for the Cell melanin in test [1] (conc. 0.001 % w/v) and in test [1] (conc. 0.003 % w/v) were 75 %-rel and 18 %-rel, respectively. The Cell proteins worked out at 89 %-rel in test [1] (conc. 0.001 % w/v) and 70 %-rel in test [1] (conc. 0.003 % w/v).

As to Trehalose caprate, in test [2] (conc. 0.00003 % w/v), the Cell proteins turned out to be 120 %-rel and the GSH/proteins worked out at 87 %-rel. In addition, in test [4] (Conc. [w/v] 0.3), the Collagenase inhibition is recorded as 52 %-rel. In test [1] (conc. 0.001 % w/v), this substance gave a Cell melanin of 53 %-rel and a Cell proteins of 100 %-rel. In addition, in test [1] (conc. 0.003 % w/v), the Cell melanin is reported as 23 %-rel and the Cell proteins worked out at 75 %-rel. In addition, the “Inhibition zones, Propionibacterium acnes” value in test [6] is on record as 10 mm. Besides, the “Inhibition zones, Staphylococcus aureus” value in test [7] was determined as 10 mm. Moreover, the “Inhibition zones, Staphylococcus epidermidis” value in test [8] worked out at 0 mm.

For the substance Trehalose laurate, in test [2] (conc. 0.003 % w/v), the Cell proteins turned out to be 119 %-rel and the GSH/proteins is reported as 90 %-rel. The substance further registered a Collagenase inhibition in test [4] (Conc. [w/v] 0.1) of 21 %-rel.

Values taken from US20050220726A1, “Use of sugar esters in cosmetic and/or pharmaceutical preparations” (priority 2003, published 2005).
